Where a SMILES comes first, the peptide text is derived from it. [ ]: non-standard residue; d: D form. Aib = CC(C)(N)C(=O)O
Experiments:
HeLa cells [1] = details: 2 h incubation, MTT; for cytotoxicity: pH 6.0, 20 µM; for viability of cells: pH 7.4 and pH 6.5, different concentrations
Experimental: Cytotoxicity of all peptides against HeLa cells was evaluated using the MTT assay under varying pH conditions (pH 7.4, 6.5 and 6.0). Cells were seeded at 1 × 10^4 cells/well in 96-well plates, 24 h before treatment. After washing, cells were treated with serum-free medium, adjusted to pH 7.4, 6.5 or 6.0, and containing various concentrations of peptides. After 2 h incubation, 10 µL of MTT (5 mg/mL) was added to each well and incubated for another 4 h at 37°C. Then, the medium was removed and cells were dissolved by 150 µL dimethyl sulfoxide. Absorbance was determined using a microplate reader at 490 nm. Cell viability (%) was calculated using the following equation: Atest∕Acontrol × 100%, where Atest and Acontrol represent the absorbance of cells treated with different test solutions and blank culture media, respectively.

HeLa cells [2] = details: 2 h incubation, n = 3; for LDH levels with decreasing pH: pH 7.4, 6.5, 6.0
Experimental: Membrane integrity was evaluated using the CytoTox-ONE assay. Cells were seeded at 1 ×10^4cells/well in a 96-well plate 24 h before treatment. After 2 h incubation with 100 µL serum-free medium, adjusted to pH 7.4, 6.5 or 6.0 and containing various concentrations of peptides, 40 µL of medium was transferred to a black fluorescence plate and incubated for 10 min with 40 µL of CytoTox-ONE reagent, followed by 20 µL of stop solution. Fluorescence was recorded with an excitation wavelength of 560 nm and emission wavelength of 590 nm. Untreated cells were defined as those where no leakage was observed while 100% leakage was defined as a total release of LDH due to cell lysis in 0.2% Triton X-100.

mice red blood cells = details: mouse erythrocytes in PBS, 1 h at 37°C; maximum concentration of 200 µM; n = 3
Experimental: Fresh mouse blood was collected in heparin sodium-containing centrifuge tubes. Erythrocytes were separated by centrifugation at 800×g for 10 min and washed three times with phosphate buffered saline (PBS). Obtained erythrocytes were resuspended in PBS to 8 % (v/v). 100 µL of the peptide solution of various concentrations and 100 µL of the erythrocyte suspension were added to the wells of a 96-well plate. PBS and 0.2 % TritonX-100 were used as agents for 0 % and 100 % hemolysis, respectively. Plates were incubated for 1 h at 37°C and centrifuged at 1,200×g for 15 min. A total of 100 µL of each supernatant was transferred to a 96-well plate, and the release of hemoglobin was determined using a microplate reader at 490 nm.

[3] = in vitro and in vivo conditions; ref Zhang et al., 2011; cited from earlier work
Source text: In recent years, pH-responsive CPPs have been developed for targeted delivery based on the pH gradient between the tumor tissues and physiological environment ([Lee, Gao & Bae, 2008]; [Shi et al., 2015]; [Jiang et al., 2012]; [Fei et al., 2014]). […] The acidic tumor microenvironment mandates the development of pH-responsive CPPs for improved s ...

[4] = set-up: method as in Zaro, Fei & Shen, 2012; Ouahab et al., 2014; details: ref Zaro, Fei & Shen, 2012; Ouahab et al., 2014; cited from earlier work
Source text: However, due to the imidazole on histidine with a pKa around 6.5, histidine could protonate into a net positive charge at pH values below 6.5 ([Zaro, Fei & Shen, 2012]; [Ouahab et al., 2014]), thereby activating the membrane penetrating activity of TH and allowing its entry into the cells. However, histidine becomes relatively insensitive to the tumor extracellular environment when the pH is in the 6.5–7.2 range, thereby reducing the pH-dependent penetrating activity of TH. In order to extend the applications of acid-activated CPPs, it is necessary to improve their pH-response. The ability of ...

[5] = RP-HPLC retention time on C18 column (hydrophobicity); assay type: physicochemical; details: for RP-HPLC retention times: analytical RP-HPLC, C18, sunfire column 3.9 mm × 150 mm, Waters, used as measure of hydrophobicity
Experimental: All peptides shown in Table 1 were synthesized on a MBHA (0.43mmol/g) resin using the standard Fmoc-chemistry-based strategy. Fluorescein moiety (FITC) was attached to the N-terminusvia an aminohexanoic acid spacer by treating the resin-bound peptide (0.1 mmol) with FITC (0.1 mmol) and diisopropyl ethyl amine (0.5 mmol) in DMF for 12 h. All crude peptides were purified and analyzed by reversed-phase high performance liquid chromatography (RP-HPLC) on a C18 column, and then characterized by electrospray ionization mass spectrometry (ESI-MS).
Generally, cationic CPPs can bind on the anionic membrane surfaces via electrostatic interaction and promote cellular uptake ([Poon & Gariepy, 2007]). Thus, cationic functionalityis a critical factor for cell penetration. Histidine is especially pH-responsive ([Zaro, Fei & Shen, 2012]; [Ouahab et al., 2014]). Due to the presence of an imidazole ring, it has the ability to receive protons and protonate into a positive charge in an acidic tumor environment, whereas it remains predominantly uncharged under normal physiological conditions. The pH-responsiveness of histidine has been widely utilizedin the design of pH-responsive CPPs for targeted drug delivery. The protonation ability of histidine’simidazole moiety is the key for pH-dependent cellular uptake of histidine-rich peptides. […] In this regard, this study focused on the development of new histidine analogs that enhance the protonation of histidine by introducing alkylated groups with different electron-donating ability.

HeLa cells [6] = assay: Quantitative cellular uptake assay (flow cytometry) of FITC-labeled peptides; assay type: cell-based; details: 1 h; for fluorescence intensity / cellular uptake relative to TH: all pH values (7.4, 6.5, 6.0); for fluorescence intensity / cellular uptake relative to TH / pH-responsive effect (change of fluorescence from pH 7.4 to pH 6.0) relative to TH: 5 µM FITC-labeled peptide
Experimental: The cells were harvested and centrifuged at 1,000 rpm for 5 min. Subsequently, the cell pellet was suspended and washed twice with PBS and resuspended in PBS. Finally, fluorescence intensity of 10,000 cells was analyzed with an FACS caliber flow cytometer using 488-nm laser excitation.

HeLa cells [7] = assay: Confocal laser scanning microscopy of FITC-labeled peptides; assay type: cell-based; details: CLSM, 5 µM FITC-labeled peptide, 1 h, 37°C; for pH-responsiveness of cellular uptake: pH 7.4, 6.5, 6.0
Experimental: To obtain a direct insight into the distribution of FITC-labeled peptides in cells, HeLa cells (6 × 10^4 cells/well) were plated in a glass-bottom culture dish for 24 h and then incubated with the FITC-labeled peptides using conditions and concentrations described above. After 1 h incubation at 37°C, the cells were washed with cold PBS three times and imaged using confocal laser scanning microscopy.

Row | Compound | cytotoxicity (HeLa cells [1]) | viability of cells (HeLa cells [1]) | LDH levels with decreasing pH (HeLa cells [2]) | RP-HPLC retention times [5] [min] | fluorescence intensity / cellular uptake relative to TH (HeLa cells [6]) | pH-responsiveness of cellular uptake (HeLa cells [7]) | cytotoxic variation from pH 7.4 to pH 6.0 (HeLa cells [1]) | LDH levels at pH 6.5 and pH 6.0 relative to pH 7.4 (HeLa cells [2]) | pH-responsive effect (change of fluorescence from pH 7.4 to pH 6.0) relative to TH (HeLa cells [6]) | also measured
1 | CC[C@H](C)[C@H](NC(=O)[C@H](Cc1c[nH]cn1)NC(=O)[C@H](Cc1c[nH]cn1)NC(=O)C(C)(C)NC(=O)[C@H](CC(C)C)NC(=O)[C@H](Cc1c[nH]cn1)NC(=O)[C@H](C)NC(=O)[C@H](CC(C)C)NC(=O)[C@H](Cc1c[nH]cn1)NC(=O)[C@H](Cc1c[nH]cn1)NC(=O)[C@H](CC(C)C)NC(=O)[C@H](CC(N)=O)NC(=O)[C@@H](NC(=O)[C@H](Cc1c[nH]cn1)NC(=O)CNC(=O)[C@H](CC(C)C)NC(=O)[C@H](CC(C)C)NC(=O)[C@H](Cc1ccc(O)cc1)NC(=O)CNC(=O)[C@H](C)N)[C@@H](C)CC)C(=O)N[C@@H](CC(C)C)C(N)=O [TH] (H-AGYLLGHINLHHLAHL[Aib]HHIL-NH2) | increased | higher than 80% | rose as the pH value decreased | – | – | – | – | – | – | hemolytic activity (cytotoxicity against red blood cells) (mice red blood cells): little cytotoxicity against red blood cells; toxicity compared to TK [3]: decreased
2 | N[C@@H](Cc1c[nH]cn1)C(=O)O [histidine] | – | – | – | – | – | – | – | – | – | pKa of the imidazole on histidine [4]: around 6.5
3 | AGYLLGHBINLHBHBLAHBL(Aib)HBHBIL-NH2 [Butyl-TH] | – | – | – | 20.561 | increased remarkably | more pH-responsive at pH 6.5 | didn’t show obvious cytotoxic variation | comparable to that at pH 7.4 | – | fluorescence intensity, fold higher than TH (HeLa cells [6]; pH 6.5, 5 µM FITC-labeled peptide, serum-free medium): approximately 1.72 fold
4 | AGYLLGHEINLHEHELAHEL(Aib)HEHEIL-NH2 [Ethyl-TH] | increased | higher than 80% | rose as the pH value decreased | 18.623 | – | better pH-dependent cellular uptake than TH at pH 6.0 | – | – | better than TH | fluorescence intensity relative to TH (HeLa cells [6]; pH 7.4 and 6.5, 5 µM FITC-labeled peptide): lower fluorescence intensity than TH; LDH release in comparison with TH and the other analogs (HeLa cells [2]; pH 6.0): most obvious LDH release
5 | AGYLLGHIINLHIHILAHIL(Aib)HIHIIL-NH2 [Isopropyl-TH] | – | – | – | 19.041 | – | no pH-responsive at pH 6.5 | didn’t show obvious cytotoxic variation | comparable to that at pH 7.4 | lower than that of TH | fluorescence intensity at pH 6.5 relative to pH 7.4 (HeLa cells [7]): slightly lower than that at pH 7.4
6 | AGYLLGHMINLHMHMLAHML(Aib)HMHMIL-NH2 [Methyl-TH] | – | – | – | 18.058 | reduction of cellular uptake | poor pH-responsiveness | – | comparable to that at pH 7.4 | – | hydrophobicity relative to TH ([5]; from retention time on the C18 reverse-phase HPLC column): less hydrophobic than TH; cellular uptake relative to TH (HeLa cells [7]; pH 6.5 and pH 6.0): lower cellular uptake than TH; cytotoxicity at low pH (HeLa cells [1]; pH 6.5 and pH 6.0): didn’t show any significant cytotoxicity

— article PMC5465999, “Design of new acid-activated cell-penetrating peptides for tumor drug delivery” (PeerJ, 2017)
